From PubChem BioAssay (NCI)
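Five compound concentrations were applied to cells in 96-well plates for 48 hours; endpoints were derived by simple linear interpolation of the resulting dose-response curve. The concentration for full growth arrest is given as TGI.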

What was measured:
Assay in all cases: DTP human tumour cell line panel, 48 h
[1] = tested on: HCT-116 colon
[2] = tested on: NCI-H460 lung
[3] = tested on: COLO 205 colon
[4] = tested on: HOP-92 NSCLC
[5] = tested on: SNB-75 CNS
[6] = tested on: SW-620 colon
[7] = tested on: T-47D breast
[8] = tested on: SNB-19 CNS
[9] = tested on: IGROV1 ovarian
[10] = tested on: BT-549 breast
[11] = tested on: SR leukemia
[12] = tested on: SK-MEL-28 melanoma
[13] = tested on: UACC-257 melanoma
[14] = tested on: MDA-MB-231 breast
[15] = tested on: UO-31 renal
[16] = tested on: HCT-15 colon
[17] = tested on: OVCAR-4 ovarian
[18] = tested on: SK-MEL-5 melanoma
[19] = tested on: MOLT-4 leukemia
[20] = tested on: SK-MEL-2 melanoma
[21] = tested on: HL-60(TB) leukemia
[22] = tested on: LOX IMVI melanoma
[23] = tested on: KM12 colon
[24] = tested on: UACC-62 melanoma
[25] = tested on: OVCAR-5 ovarian
[26] = tested on: HS 578T breast
[27] = tested on: MCF7 breast
[28] = tested on: HOP-62 NSCLC
[29] = tested on: RPMI-8226 leukemia
[30] = tested on: SF-268 CNS
[31] = tested on: EKVX NSCLC
[32] = tested on: ACHN renal
[33] = tested on: A498 renal
[34] = tested on: SK-OV-3 ovarian
[35] = tested on: HCC-2998 colon
[36] = tested on: M14 melanoma
[37] = tested on: SF-295 CNS
[38] = tested on: DU-145 prostate
[39] = tested on: TK-10 renal
[40] = tested on: CAKI-1 renal
[41] = tested on: U251 CNS
[42] = tested on: A549 NSCLC
[43] = tested on: PC-3 prostate
[44] = tested on: NCI-H522 lung
[45] = tested on: OVCAR-3 ovarian
[46] = tested on: MDA-MB-435
[47] = tested on: SF-539 CNS
[48] = tested on: K-562 leukemia
[49] = tested on: RXF 393 renal
[50] = tested on: MDA-N
[51] = tested on: SN12C renal
[52] = tested on: 786-0 renal
[53] = tested on: MALME-3M melanoma
[54] = tested on: NCI-H23 lung
[55] = tested on: NCI-H226 lung
[56] = tested on: HT29 colon
[57] = tested on: CCRF-CEM leukemia
[58] = tested on: OVCAR-8 ovarian

Brc1ccc(-c2[nH]c3ccccc3c2N=Nc2ccccc2)cc1
TGI [1]: 34.8 µM
TGI [2]: 31.8 µM
TGI [3]: 28.5 µM
TGI [4]: 36.2 µM
TGI [5]: 33.9 µM
TGI [6]: 35.3 µM
TGI [7]: 32.5 µM
TGI [8]: 38.1 µM
TGI [9]: 26.2 µM
TGI [10]: 41.5 µM
TGI [11]: 51.8 µM
TGI [12]: 37.8 µM
TGI [13]: 35.1 µM
TGI [14]: 35.8 µM
TGI [15]: 29.9 µM
TGI [16]: 30 µM
TGI [17]: 30.4 µM
TGI [18]: 32.7 µM
TGI [19]: 38.6 µM
TGI [20]: 36.7 µM
TGI [21]: 63.4 µM
TGI [22]: 65.2 µM
TGI [23]: 36.1 µM
TGI [24]: 36.7 µM
TGI [25]: 33.5 µM
TGI [26]: 44.1 µM
TGI [27]: 31.7 µM
TGI [28]: 34.7 µM
TGI [29]: 58 µM
TGI [30]: 36 µM
TGI [31]: 32.9 µM
TGI [32]: 37.2 µM
TGI [33]: 44.1 µM
TGI [34]: 33 µM
TGI [35]: 30.7 µM
TGI [36]: 33.5 µM
TGI [37]: 33.3 µM
TGI [38]: 32.2 µM
TGI [39]: 37.8 µM
TGI [40]: 27.8 µM
TGI [41]: 33.9 µM
TGI [42]: 30.5 µM
TGI [43]: 32.6 µM
TGI [44]: 34.6 µM
TGI [45]: 26.8 µM
TGI [46]: 34.5 µM
TGI [47]: 32 µM
TGI [48]: > 100 µM
TGI [49]: 30.8 µM
TGI [50]: 30.5 µM
TGI [51]: 31.6 µM
TGI [52]: 32.9 µM
TGI [53]: 36.1 µM
TGI [54]: 34.1 µM

CSC(SC)=C(C#N)C(=O)Nc1ccc(C)cc1
TGI [1]: > 100 µM
TGI [2]: > 100 µM
TGI [3]: > 100 µM
TGI [55]: > 100 µM
TGI [4]: 54.8 µM
TGI [6]: > 100 µM
TGI [7]: > 100 µM
TGI [8]: > 100 µM
TGI [9]: > 100 µM
TGI [10]: > 100 µM
TGI [11]: > 100 µM
TGI [12]: > 100 µM
TGI [13]: > 100 µM
TGI [14]: > 100 µM
TGI [15]: > 100 µM
TGI [16]: > 100 µM
TGI [17]: > 100 µM
TGI [18]: > 100 µM
TGI [19]: > 100 µM
TGI [20]: > 100 µM
TGI [21]: > 100 µM
TGI [22]: > 100 µM
TGI [23]: > 100 µM
TGI [24]: > 100 µM
TGI [25]: > 100 µM
TGI [26]: > 100 µM
TGI [27]: > 100 µM
TGI [28]: > 100 µM
TGI [29]: > 100 µM
TGI [56]: > 100 µM
TGI [30]: > 100 µM
TGI [31]: > 100 µM
TGI [32]: > 100 µM
TGI [34]: > 100 µM
TGI [35]: > 100 µM
TGI [36]: > 100 µM
TGI [37]: > 100 µM
TGI [38]: > 100 µM
TGI [39]: > 100 µM
TGI [40]: > 100 µM
TGI [41]: > 100 µM
TGI [42]: > 100 µM
TGI [43]: > 100 µM
TGI [44]: > 100 µM
TGI [45]: > 100 µM
TGI [46]: > 100 µM
TGI [47]: > 100 µM
TGI [48]: > 100 µM
TGI [49]: > 100 µM
TGI [57]: > 100 µM
TGI [50]: > 100 µM
TGI [51]: > 100 µM
TGI [52]: > 100 µM
TGI [53]: > 100 µM
TGI [54]: > 100 µM

Cc1ccc(NC(=O)/C=C/c2ccccc2)c(C)c1
TGI [1]: > 100 µM
TGI [2]: > 100 µM
TGI [3]: > 100 µM
TGI [55]: 92 µM
TGI [5]: > 100 µM
TGI [6]: > 100 µM
TGI [7]: > 100 µM
TGI [8]: > 100 µM
TGI [10]: > 100 µM
TGI [11]: > 100 µM
TGI [12]: > 100 µM
TGI [13]: > 100 µM
TGI [14]: > 100 µM
TGI [16]: > 100 µM
TGI [17]: > 100 µM
TGI [18]: > 100 µM
TGI [19]: > 100 µM
TGI [20]: > 100 µM
TGI [21]: > 100 µM
TGI [22]: > 100 µM
TGI [23]: > 100 µM
TGI [24]: > 100 µM
TGI [25]: > 100 µM
TGI [26]: 74.4 µM
TGI [27]: > 100 µM
TGI [28]: > 100 µM
TGI [29]: > 100 µM
TGI [56]: > 100 µM
TGI [30]: > 100 µM
TGI [31]: > 100 µM
TGI [32]: > 100 µM
TGI [33]: > 100 µM
TGI [34]: > 100 µM
TGI [35]: > 100 µM
TGI [36]: > 100 µM
TGI [38]: > 100 µM
TGI [39]: > 100 µM
TGI [40]: > 100 µM
TGI [41]: > 100 µM
TGI [42]: > 100 µM
TGI [43]: > 100 µM
TGI [44]: > 100 µM
TGI [45]: > 100 µM
TGI [46]: > 100 µM
TGI [47]: > 100 µM
TGI [48]: > 100 µM
TGI [57]: > 100 µM
TGI [50]: > 100 µM
TGI [51]: > 100 µM
TGI [52]: > 100 µM
TGI [53]: > 100 µM
TGI [54]: > 100 µM
TGI [58]: > 100 µM
